From patent US9468621B2, “Metal-salen complex compound responsive drug and intra-corporeal behavior control system for metal-salen complex compound” (IHI Corporation, priority 2011, dated 2016)
Like-named read-outs stand apart in the source and are kept apart here. Each block holds one compound with its values, some of them ahead of it.

How the values were obtained:
[1] = Calcein AM fluorescence (RFU) assay of chelation of the ferrous-salen complex compound by a metal chelating agent; assay type: biochemical; settings: for EC50: Calcein AM, FIG. 1, read-out: EC50 (50% effective concentration of a maximum reaction value) of chelator, RFU recovery
Description: If calcein (Calcein: fluorescent indicator) is used solely, it emits light (an RFU value increases); however, if calcein binds with a ferrous-salen complex compound, light emission diminishes (the RFU value decreases). Accordingly, if deferoxamine (deferoximine: the above-mentioned structural formula (II)) exists, iron ions of the ferrous-salen complex compound are adsorbed by the deferoxamine and ferrous-salen ligands are detached from calcein. As a result, the amount of the calcein-divalent-iron-salen complex compound decreases and the light emission […]. You can tell that as an amount of emitted light […], the metal-salen complex compound combines with the metal chelating agent.
The ferrous-salen complex compound (M=Fe, R═R′═H) indicated as the aforementioned structural formula (III) was produced based on descriptions of WO 2010/058280. […] Subsequently, 15 μM deferoxamine was administered to this ferrous-salen complex compound—calcein AM complex—and measurement was performed one hour later by using a measuring device (parkinermar ARVO) (λexc=485 nm, λem=520 nm).
A 15 μM of deferoxamine and vitamin C was administered to the ferrous-salen complex compound—calcein AM complex—which was produced in Example 1 above and measurement was performed one hour later by using the measuring device (parkinermar ARVO) (λexc=485 nm, λem=520 nm). As a result, it was also confirmed that when the ferrous-salen complex compound was added to Calcein AM, the RFU (Relative Fluorescent Unit) value was low. However, it was confirmed that when the chelator (deferoxamine and vitamin C) continued to be added, the RFU value increased.

[2] = test system: POS-1 cells (mouse osteosarcoma cells); assay: MTT cell survival assay: neutralizing cytotoxicity of the ferrous-salen complex compound; assay type: cell-based; settings: 24 hours
Protocol: (§1) The cells were collected 24 hours later and an MTT reagent for cell survival assay was administered, 400 μL of 0.04-mol of HCl/isopropyl alcohol was added 45 minutes later, 100 μL of the obtained mixture was dispensed to 96-well plates, and absorbance at 570 nm was measured, thereby calculating cell viability.
as §1, with “and the” for “and an”

- EC50 ([1]; ferrous-salen complex compound (NBEI) 10 μM): 0.966 µM
- EC50 ([1]; ferrous-salen complex compound (NBEI) 50 μM): 1.63 µM
Structure (SMILES): CC(=O)N(O)CCCCCNC(=O)CCC(=O)N(O)CCCCCNC(=O)CCC(=O)N(O)CCCCCN [deferoxamine, (N-(5-aminopentyl)-N-hydroxy-N′-[5-(N-hydroxy-3-{[5-(N-hydroxyacetamido)pentyl]carbamoyl}propanamido)pentyl]butanediamide)]
- RFU (Relative Fluorescent Unit) value when the chelator continued to be added ([1]; chelator added to ferrous-salen complex compound-calcein AM complex, measured one hour later, λexc=485 nm, λem=520 nm): increased

Structure (SMILES): O=C(O)c1ccc(-n2nc(-c3ccccc3O)nc2-c2ccccc2O)cc1 [deferasirox, 4-[3,5-Bis(2-hydroxyphenyl)-1,2,4-triazol-1-yl]benzoic acid]
- cell viability as chelator concentration increased (neutralization of toxicity) ([2]; 7.5 μM ferrous-salen complex compound (NBEI) plus deferasirox 0.1-15 μM, FIG. 2): increased
- deferasirox concentration at which the effect on cell viability did not change further ([2]; 7.5 μM ferrous-salen complex compound (NBEI)): ≥ 1.8 µM

Structure (SMILES): [Fe+2].[O-]c1ccccc1C=NCCN=Cc1ccccc1[O-] [ferrous-salen complex compound]
- RFU (Relative Fluorescent Unit) value when added to Calcein AM ([1]; ferrous-salen complex compound added to Calcein AM, no chelator): low
- cell viability ([2]; 7.5 μM, control = 100%, FIG. 2): decreased
